# Test results taken from ChEMBL document CHEMBL5608163, “Structure modification of anoplin for fighting resistant bacteria” (Eur J Med Chem, 2024).
# Square brackets hold non-standard residues; d marks the D form. Peptide text beside a SMILES is read from it. 2Nal = N[C@@H](Cc1ccc2ccccc2c1)C(=O)O; Cha = N[C@@H](CC1CCCCC1)C(=O)O
# How the values were obtained:
# Acinetobacter baumannii = assay: Antibacterial activity against multi-drug resistant Acinetobacter baumannii clinical isolate 9840 assessed as reduction in bacterial growth measured after 18 to 24 hrs by CLSI protocol-based Mueller-Hinton broth dilution method; format: functional; conditions: time 18-24 hrs
# Klebsiella pneumoniae = assay: Antibacterial activity against Klebsiella pneumoniae ATCC 700603 assessed as reduction in bacterial growth measured after 18 to 24 hrs by CLSI protocol-based Mueller-Hinton broth dilution method; format: functional; conditions: time 18-24 hrs
# Staphylococcus aureus [1] = assay: Antibacterial activity against Staphylococcus aureus ATCC 25923 assessed as reduction in bacterial growth measured after 18 to 24 hrs by CLSI protocol-based Mueller-Hinton broth dilution method; format: functional; conditions: time 18-24 hrs
# Escherichia coli [2] = assay: Antibacterial activity against multi-drug resistant Escherichia coli clinical isolate 850 assessed as reduction in bacterial growth measured after 18 to 24 hrs by CLSI protocol-based Mueller-Hinton broth dilution method; format: functional; conditions: time 18-24 hrs
# Bacillus subtilis [3] = assay: Antibacterial activity against Bacillus subtilis ATCC 23857 assessed as reduction in bacterial growth measured after 18 to 24 hrs by CLSI protocol-based Mueller-Hinton broth dilution method; format: functional; conditions: time 18-24 hrs
# Pseudomonas aeruginosa [4] = assay: Antibacterial activity against multi-drug resistant Pseudomonas aeruginosa clinical isolate 119 assessed as reduction in bacterial growth measured after 18 to 24 hrs by CLSI protocol-based Mueller-Hinton broth dilution method; format: functional; conditions: time 18-24 hrs
# Erythrocyte = assay: Hemolytic activity in erythrocytes (unknown origin); format: toxicity, cell-based
# [5] = Hemolytic activity against Red blood cells (unknown origin) incubated for 1 hr by spectrophotometric analysis; format: toxicity, cell-based, Erythrocyte
# [6] = Hemolytic activity in human RBC; format: toxicity, cell-based, Erythrocyte; conditions: red blood cells
# Enterococcus faecium = assay: Antibacterial activity against vancomycin resistant Enterococcus faecium NCTC 12204 assessed as reduction in bacterial growth by microdilution broth method; format: functional
# Escherichia coli [7] = assay: Antibacterial activity against Escherichia coli ATCC 25922 assessed as reduction in bacterial growth incubated for 18 to 24 hrs by broth microdilution method; format: functional; conditions: time 18-24 hrs
# Pseudomonas aeruginosa [8] = assay: Antibacterial activity against Pseudomonas aeruginosa ATCC 15442 assessed as reduction in bacterial cell growth incubated for 18 to 24 hrs by two fold serial microdilution method; format: functional; conditions: time 18-24 hrs
# Staphylococcus aureus [9] = assay: Antibacterial activity against methicillin-resistant Staphylococcus aureus ATCC 33591 assessed as reduction in bacterial growth incubated for 16 to 24 hrs by agar dilution method; format: functional; conditions: time 16-24 hrs
# [10] = test system: Mycolicibacterium smegmatis; assay: Antimycobacterial activity against Mycobacterium smegmatis mc2 155 assessed as reduction in bacterial cell growth incubated for 24 hrs by resazurin dye based broth microdilution method; format: functional
# Pseudomonas aeruginosa [11] = assay: Antimicrobial activity against Pseudomonas aeruginosa assessed as inhibition of microbial growth incubated for 24 hrs by microdilution method; format: functional
# Escherichia coli [12] = assay: Antibacterial acitivity against Escherichia coli DH5a assessed as bacterial growth inhibition incubated for 24 hrs by broth micro-dilution method; format: functional
# [13] = Hemolytic activity against human Red blood cells assessed as cell lysis; format: toxicity, cell-based, Erythrocyte
# Zymomonas mobilis = assay: Antibacterial activity against Zymomonas mobilis ATCC 10988 assessed as reduction in bacterial growth incubated for 24 hrs by broth micro-dilution method; format: functional
# Bacillus subtilis [14] = assay: Antimicrobial activity against Bacillus subtilis assessed as microbial growth inhibition incubated for 24 hrs by broth micro-dilution method; format: functional
SMILES,HC50 at 1 h [5] [µM],HC50 [6] [µM],MIC (Enterococcus faecium) [µM],MIC (Escherichia coli [7]) [µM],MIC (Pseudomonas aeruginosa [8]) [µM],MIC (Staphylococcus aureus [9]) [µM],MIC [10] [µM],MIC (Pseudomonas aeruginosa [11]) [µM],MIC (Escherichia coli [12]) [µM],HC50 [13] [µM],MIC (Zymomonas mobilis) [µM],MIC (Bacillus subtilis [14]) [µM],other results
CC[C@H](C)[C@H](NC(=O)[C@H](CCCNC(=N)N)NC(=O)[C@@H](CCCCN)NC(=O)[C@H](CC(C)C)NC(=O)[C@H](CC(C)C)NC(=O)CNC(C)=O)C(=O)N[C@H](CCCCN)C(=O)N[C@H](C(=O)N[C@@H](CC(C)C)C(=O)N[C@@H](CC(C)C)C(=O)NC(Cc1cn(CCCC[C@H](NC(C)=O)C(=O)NCC(=O)N[C@@H](CC(C)C)C(=O)N[C@@H](CC(C)C)C(=O)N[C@@H](CCCCN)C(=O)N[C@H](CCCNC(=N)N)C(=O)N[C@H](C(=O)N[C@H](CCCCN)C(=O)N[C@H](C(=O)N[C@@H](CC(C)C)C(=O)N[C@@H](CC(C)C)C(N)=O)[C@@H](C)O)[C@@H](C)CC)nn1)C(N)=O)[C@@H](C)O (stereo not given in full),–,–,–,–,–,–,–,–,–,–,–,–,MIC (Acinetobacter baumannii): 8 µM; MIC (Klebsiella pneumoniae): 16 µM; MIC (Staphylococcus aureus [1]): 128 µM; MIC (Escherichia coli [2]): 16 µM; MIC (Bacillus subtilis [3]): 4 µM; MIC (Pseudomonas aeruginosa [4]): 16 µM
CC[C@H](C)[C@H](NC(=O)[C@H](CCCNC(=N)N)NC(=O)[C@H](CCCCN)NC(=O)[C@@H](CC(C)C)NC(=O)[C@H](CC(C)C)NC(=O)CNC(C)=O)C(=O)N[C@@H](CCCCN)C(=O)N[C@H](C(=O)N[C@H](CC(C)C)C(=O)N[C@H](CC(C)C)C(=O)NC(Cc1cn(CCCC[C@H](NC(=O)[C@H](CC(C)C)NC(=O)[C@H](CC(C)C)NC(=O)[C@@H](NC(=O)[C@@H](CCCCN)NC(=O)[C@@H](NC(=O)[C@H](CCCNC(=N)N)NC(=O)[C@@H](CCCCN)NC(=O)[C@H](CC(C)C)NC(=O)[C@H](CC(C)C)NC(=O)CNC(C)=O)[C@@H](C)CC)[C@@H](C)O)C(N)=O)nn1)C(N)=O)[C@@H](C)O (stereo not given in full),–,–,–,–,–,–,–,–,–,–,–,–,MIC (Acinetobacter baumannii): 2 µM; MIC (Klebsiella pneumoniae): 16 µM; MIC (Staphylococcus aureus [1]): 32 µM; MIC (Escherichia coli [2]): 4 µM; MIC (Bacillus subtilis [3]): 2 µM; MIC (Pseudomonas aeruginosa [4]): 16 µM
CC[C@H](C)[C@H](NC(=O)[C@H](CCCNC(=N)N)NC(=O)[C@@H](CCCCN)NC(=O)[C@H](CC(C)C)NC(=O)[C@H](CC(C)C)NC(=O)CNC(C)=O)C(=O)N[C@H](CCCCN)C(=O)N[C@H](C(=O)N[C@@H](CC(C)C)C(=O)N[C@@H](CC(C)C)C(=O)NC(Cc1cn(CCCC[C@H](NC(=O)[C@H](CC(C)C)NC(=O)[C@H](CC(C)C)NC(=O)[C@@H](NC(=O)[C@@H](CCCCN)NC(=O)[C@@H](NC(=O)[C@@H](CCCNC(=N)N)NC(=O)[C@H](CCCCN)NC(=O)[C@H](CC(C)C)NC(=O)[C@H](CC(C)C)NC(=O)CNC(C)=O)[C@@H](C)CC)[C@@H](C)O)C(N)=O)nn1)C(N)=O)[C@@H](C)O (stereo not given in full),–,–,–,–,–,–,–,–,–,–,–,–,MIC (Acinetobacter baumannii): 4 µM; MIC (Klebsiella pneumoniae): 64 µM; MIC (Staphylococcus aureus [1]): 64 µM; MIC (Escherichia coli [2]): 16 µM; MIC (Bacillus subtilis [3]): 64 µM; MIC (Pseudomonas aeruginosa [4]): 32 µM
CC[C@@H](C)[C@@H](NC(=O)[C@H](CCCNC(=N)N)NC(=O)[C@H](CCCCN)NC(=O)[C@H](CC(C)C)NC(=O)[C@H](CC1CCCCC1)NC(=O)CN)C(=O)N[C@@H](CCCCN)C(=O)N[C@H](C(=O)N[C@@H](CC(C)C)C(=O)N[C@@H](CC1CCCCC1)C(N)=O)[C@@H](C)O,–,–,–,–,–,–,–,–,–,–,–,–,HC10 (Erythrocyte): 225.6 µM
CC[C@H](C)[C@H](NC(=O)[C@H](CCCNC(=N)N)NC(=O)[C@H](CCCCN)NC(=O)[C@@H](CC(C)C)NC(=O)[C@H](CC(C)C)NC(=O)CNC(C)=O)C(=O)N[C@@H](CCCCN)C(=O)N[C@H](C(=O)N[C@H](CC(C)C)C(=O)N[C@H](CC(C)C)C(=O)NC(Cc1cn(CCCC[C@H](NC(C)=O)C(=O)NCC(=O)N[C@@H](CC(C)C)C(=O)N[C@@H](CC(C)C)C(=O)N[C@H](CCCCN)C(=O)N[C@@H](CCCNC(=N)N)C(=O)N[C@H](C(=O)N[C@H](CCCCN)C(=O)N[C@H](C(=O)N[C@@H](CC(C)C)C(=O)N[C@@H](CC(C)C)C(N)=O)[C@@H](C)O)[C@@H](C)CC)nn1)C(N)=O)[C@@H](C)O (stereo not given in full),–,–,–,–,–,–,–,–,–,–,–,–,MIC (Acinetobacter baumannii): 2 µM; MIC (Klebsiella pneumoniae): 8 µM; MIC (Staphylococcus aureus [1]): 32 µM; MIC (Escherichia coli [2]): 4 µM; MIC (Bacillus subtilis [3]): 2 µM; MIC (Pseudomonas aeruginosa [4]): 16 µM
CC(C)C[C@H](NC(=O)[C@H](CC(C)C)NC(=O)[C@H](CCCCN)NC(=O)[C@H](CCCCN)NC(=O)[C@H](Cc1ccc2ccccc2c1)NC(=O)[C@H](CCCNC(=N)N)NC(=O)[C@H](CCCCN)NC(=O)[C@H](CC(C)C)NC(=O)[C@H](CCCCN)NC(=O)CN)C(N)=O (H-GKLKR[2Nal]KKLL-NH2),50.1,50.1,13.7,9.5,9.5,41,–,–,–,–,–,–,–
CC[C@H](C)[C@H](NC(=O)[C@H](CCCNC(=N)N)NC(=O)[C@H](CCCCN)NC(=O)[C@H](CCCCN)NC(=O)[C@H](CC(C)C)NC(=O)CN)C(=O)N[C@@H](CCCCN)C(=O)N[C@@H](CCCCN)C(=O)N[C@@H](CC(C)C)C(=O)N[C@@H](CC(C)C)C(N)=O (H-GLKKRIKKLL-NH2),–,–,–,–,–,–,13,13,> 174,> 174,12.6,13,–
CC[C@H](C)[C@H](NC(=O)[C@H](Cc1ccccc1)NC(=O)[C@H](CCCCN)NC(=O)[C@H](CC(C)C)NC(=O)[C@H](CC(C)C)NC(=O)CN)C(=O)N[C@@H](CCCCN)C(=O)N[C@@H](CCCNC(=N)N)C(=O)N[C@@H](CC(C)C)C(=O)N[C@@H](CC(C)C)C(N)=O (H-GLLKFIKRLL-NH2),–,–,–,–,–,–,4.2,2.5,167,> 167,17.4,167,–
CC[C@H](C)[C@H](NC(=O)[C@H](CCCCN)NC(=O)[C@H](CC(C)C)NC(=O)[C@H](CC(C)C)NC(=O)CN)C(=O)N[C@H](C(=O)N[C@@H](CCCCN)C(=O)N[C@@H](CCCCN)C(=O)N[C@@H](CC(C)C)C(=O)N[C@@H](CC(C)C)C(N)=O)[C@@H](C)CC (H-GLLKIIKKLL-NH2),–,–,–,–,–,–,16.7,2.5,83.7,> 167,2.5,5.9,–
CC[C@H](C)[C@H](NC(=O)[C@H](CCCCN)NC(=O)[C@H](CC(C)C)NC(=O)[C@H](CC(C)C)NC(=O)CN)C(=O)N[C@H](C(=O)N[C@@H](CCCCN)C(=O)N[C@@H](CCCNC(=N)N)C(=O)N[C@@H](CC(C)C)C(=O)N[C@@H](CC(C)C)C(N)=O)[C@@H](C)CC (H-GLLKIIKRLL-NH2),–,–,–,–,–,–,4.3,2.6,172,> 172,33.9,8.6,–
CC[C@H](C)[C@H](NC(=O)[C@H](CCCCN)NC(=O)[C@H](CCCCN)NC(=O)[C@H](CC(C)C)NC(=O)[C@H](CC(C)C)NC(=O)CN)C(=O)N[C@@H](CCCCN)C(=O)N[C@@H](CCCNC(=N)N)C(=O)N[C@@H](CC(C)C)C(=O)N[C@@H](CC(C)C)C(N)=O (H-GLLKKIKRLL-NH2),–,–,–,–,–,–,0.9,5.9,170,> 170,4.2,170,–
CC(C)C[C@H](NC(=O)CN)C(=O)N[C@@H](CC(C)C)C(=O)N[C@@H](CCCCN)C(=O)N[C@@H](CCCCN)C(=O)N[C@@H](Cc1ccc2ccccc2c1)C(=O)N[C@@H](CCCCN)C(=O)N[C@H](C(=O)N[C@@H](CC(C)C)C(=O)N[C@@H](CC1CCCCC1)C(N)=O)[C@@H](C)O (H-GLLKK[2Nal]KTL[Cha]-NH2),26.6,26.6,4.6,9.5,6.6,9.5,–,–,–,–,–,–,–
CC[C@H](C)[C@H](NC(=O)[C@H](CCCNC(=N)N)NC(=O)[C@H](CCCCN)NC(=O)[C@H](CC(C)C)NC(=O)[C@H](CC(C)C)NC(=O)CN)C(=O)N[C@@H](CCCCN)C(=O)N[C@@H](CCCCN)C(=O)N[C@@H](CC(C)C)C(=O)N[C@@H](CC1CCCCC1)C(N)=O (H-GLLKRIKKL[Cha]-NH2),12.4,12.4,9.5,9.5,4.6,9.5,–,–,–,–,–,–,–
CC[C@H](C)[C@H](NC(=O)[C@H](CCCCN)NC(=O)[C@H](CCCCN)NC(=O)[C@H](CC(C)C)NC(=O)[C@H](CC1CCCCC1)NC(=O)CN)C(=O)N[C@@H](CCCCN)C(=O)N[C@@H](CCCCN)C(=O)N[C@@H](CC(C)C)C(=O)N[C@@H](CC1CCCCC1)C(N)=O (H-G[Cha]LKKIKKL[Cha]-NH2),0.5,0.5,3.2,4.6,3.2,3.2,–,–,–,–,–,–,–
CC(C)C[C@H](NC(=O)[C@H](CC(C)C)NC(=O)[C@@H](NC(=O)[C@H](CCCCN)NC(=O)[C@H](Cc1ccc2ccccc2c1)NC(=O)[C@H](CCCCN)NC(=O)[C@H](CCCCN)NC(=O)[C@H](CC(C)C)NC(=O)[C@H](CC1CCCCC1)NC(=O)CN)[C@@H](C)O)C(N)=O (H-G[Cha]LKK[2Nal]KTLL-NH2),15.3,15.3,9.5,9.5,9.5,28.4,–,–,–,–,–,–,–
